The format of data set [1] is physicochemical. The protocol: FIG. 10 is a graph showing DBP release profiles in 900 ml MQ water: pure DBP added: 1.1 mg/100 ml and DBP 0.1% wt in PDMS emulsion droplets (φ=0.01), where ⋄ bare liquid PDMS droplets; □ pure DBP; Δ pure DBP with hydrophilic silica nanoparticles; ◯ pure DBP with hydrophobic silica nanoparticles; * PDMS droplets coated by hydrophilic silica (10^−2 M NaCl); x PDMS droplets coated by hydrophobic silica nanoparticles (10^−4 M NaCl); + PDMS droplets coated by hydrophobic silica nanoparticles (10^−1 M NaCl); the dotted line corresponds to the maximal DBP concentration that can be achieved in the dissolution medium;
FIG. 11 is a graph of DBP release profiles in 900 ml MQ water, pure DBP added: 2.8 mg/100 ml and DBP (0.25% wt) in PDMS emulsion droplets (φ=0.01): ⋄ bare liquid PDMS droplets; □ pure DBP; Δ pure DBP with hydrophilic silica nanoparticles; ◯ pure DBP with hydrophobic silica nanoparticles; * PDMS droplets coated by hydrophilic silica nanoparticles (10^−2 M NaCl); x PDMS droplets coated by hydrophobic silica nanoparticles (10^−4 M NaCl); + PDMS droplets coated by hydrophobic silica nanoparticles (10-1 M NaCl); dotted line correspond to the maximal DBP concentration that can be achieved in the dissolution medium;
However, the dissolution rate is increased when DBP is incorporated into PDMS emulsion droplets.
Similar trends of increased solubility rate occur when the total DBP concentration is well above the solubility limit (2.8 mg/100 ml) (FIG. 11). The observed increase in solubility of DBP is even more evident giving rise to supersaturated solutions. The intensity and duration of the “supersaturation” effect is much more pronounced for hydrophobic silica coated droplets. For hydrophilic particles, the peak in the soluble DBP concentration is at a maximum after 2 hours and then subsequently the soluble amount of DBP decreases within the next 6 hours and eventually reduces back to the solubility limit (FIG. 11).

Data set [2] can be described thus: DBP release from liquid PDMS emulsion droplets (bare or silica nanoparticle-coated) into MilliQ water, sink conditions. The data set is classed as physicochemical. The settings on record: for release rate constant (interfacial transport): hydrophobic nanoparticle-coated liquid PDMS droplets; for activation energy (Ea) for crossing the interfacial barrier: liquid PDMS droplets, Arrhenius, 22-37° C. On the procedure: FIG. 7 is a graph of Ln (1−Mt/M0) versus time for DBP release profiles from hydrophobic nanoparticle-coated liquid PDMS emulsion (φ=0.01) containing 0.025 wt % DBP, 900 ml MQ water as dissolution medium, where […]10^−3M NaCl; ⋄10^−2 M NaCl; Δ10^−1 M NaCl;
FIG. 8 is a graph showing Arrhenius plots for DBP release profiles from hydrophobic coated liquid PDMS emulsion droplets (φ=0.01) containing 0.025 wt % DBP, 900 ml MQ water as dissolution medium, where […]10^−1 M NaCl; ⋄10^−3M NaCl;
In experiments, dibutylphthalate (DBP) was chosen as a model drug because it is a liquid that is poorly soluble but readily miscible with PDMS. Release profiles of DBP were determined from both bare droplets (i.e. droplets not coated with nanoparticles) and coated droplets (i.e. droplets coated with hydrophilic particles and from droplets coated with hydrophobic particles).
(§1) DBP was incorporated into the PDMS droplets during the synthesis step outlined in Example 3. A modification of the method reported by Obey, T. M. and Vincent, B., (1994), Journal of Colloid Interface Science, 163:454-463 and Goller, M. I. et al., (1997), Physiochemical and Engineering Aspects, 123-124 and 183-193 (without dialysis) was employed (herein incorporated by reference). PDMS droplets were prepared according to Example 3. A further batch of cross-linked PDMS droplets were prepared using the same procedure as for liquid droplets except that the mixtures of monomer and cross-linking trimer DEDMS:TEMS (tritethoxymethylsilane) at ratios 1:0.1-1 were used instead of pure monomer. The cross-linking level of the droplets prepared ranged from 0, 10, 20, 30, 40 to 50%.
(§2) Bare and nanoparticle-coated droplet samples were prepared by mixing 10 ml of the prepared emulsions with 10 ml of sonicated MilliQ water and silica aqueous dispersions, respectively. Salt concentrations were adjusted from between 10^−4 to 10^−1 M NaCl in order to control the nanoparticle layer structure as described above.
The release rate is even more retarded in the presence of a thick interfacial particle wall prepared at 10^−1 M NaCl. Thus, depending on salt concentration, hydrophobic silica nanoparticle coatings can provide a permeable or semi-permeable barrier.
The activation energy for crossing the interfacial barrier was determined using an Arrhenius approach. Release profiles for droplets coated at 10^−3 M NaCl and 10^−1 M NaCl were determined at four temperatures: 22° C., 27° C., 32° C. and 37° C. Kinetic rate constants were determined for each temperature from equation A above and from the plots Ln k vs. 1/T (FIG. 8) the activation energies (Ea) were calculated:
Aqueous solutions containing 1% diethoxy-dimethyl-silane (DEDMS), which was previously mixed with 0, 0.025, 0.1 and 0.25 wt % DBP in a nitrogen gas atmosphere, and 0.1% ammonia were sealed under nitrogen gas in a 250 ml reaction vessel, shaken vigorously for 30 seconds, and than tumbled at 30 rpm and 25° C. for 18 hours.

Data set [3] in a line: DBP release from cross-linked PDMS emulsion droplets (bare or silica nanoparticle-coated) into MilliQ water. The data set is classed as physicochemical. The protocol:
FIG. 12 is a graph showing DBP release profiles from cross-linked PDMS emulsion droplets (φ=0.01) containing 0.025 wt % DBP, 900 ml MQ water as dissolution medium, where ⋄ bare PDMS droplets and PDMS droplets coated by hydrophobic silica nanoparticles: […]10^−4M NaCl; Δ10^−3M NaCl; ◯10^−1 M NaCl;
FIG. 13 is a graph showing Ln ([…]) versus time for drug release profiles from cross-linked PDMS emulsion droplets (φ=0.01) containing 0.025 wt % DBP, 900 ml MQ water as dissolution medium, where ◯ bare PDMS droplets and PDMS droplets coated by hydrophobic silica nanoparticles; […]10^−4M NaCl; Δ10^−3M NaCl; ◯10^−1 M NaCl;
FIG. 15 is a graph showing DBP release profiles from cross-linked PDMS emulsion droplets (φ=0.01) containing 0.25 wt % DBP in emulsions, 900 ml MQ water as dissolution medium, where ⋄ bare PDMS droplets and PDMS droplets coated by hydrophobic silica nanoparticles: […]10^−4 M NaCl; Δ10^−3 M NaCl; ◯10^−1 M NaCl;
as §1, §2
Cross-linked droplets (40% cross-linked) were chosen for study due to the fact that DBP partitioning coefficients were the highest at this cross-linking level, i.e. entrapment of DBP was the highest. […] Hydrophilic silica nanoparticle-coated capsules (created at 10^−2 M NaCl) and permeable, hydrophobic silica nanoparticle-coated capsules (created at 10^−4 M NaCl) have no effect on drug dissolution as opposed to semi-permeable hydrophilic/hydrophobic silica nanoparticle coatings around capsules (created at 10^−3-10^−1 M NaCl).
The rate limiting step for drug release from bare cross-linked droplets is diffusion through the internal matrix, therefore the diffusion-limited model is applicable (FIG. 12). Good linear fits were obtained for the first 120 minutes of release (FIG. 13). Calculated diffusion coefficients are presented in the table of FIG. 14 and are in agreement with typical values for drug diffusion in gels (e.g. 4.8 to 6.5 nm^2s^−1).

SMILES strings stand for the structures.

Take `CCCCOC(=O)c1ccccc1C(=O)OCCCC` [DBP, dibutylphthalate]: the “time after which amount in solution reduces to the normal solubility limit (duration of supersaturation)” value in data set [1] worked out at 10 h. Further, in data set [1], the “time of peak soluble DBP concentration” value came out at 2 h. The “time to achieve the equilibrium solubility level” value in data set [1] is on record as “approximately 20 hours”. Moreover, in data set [2] (bare liquid PDMS droplets, drug concentration significantly below its solubility limit in water), the “drug release from within the bare droplets” value was “rapid and complete”. The “release rate constant (interfacial transport)” value in data set [2] (at 10^-1 M NaCl) worked out at 0.05 nm^2s^-1; in data set [2] (at 10^-3 and 10^-2 M NaCl) it was 0.3 nm^2s^-1. The half release time entry in data set [2] (liquid PDMS droplets coated with hydrophobic silica nanoparticles at 10^-3 and 10^-2 M NaCl, 0.025 wt % DBP) is reported as “approximately 18 hours”. Besides, the “activation energy (Ea) for crossing the interfacial barrier” value in data set [2] (nanoparticle layer prepared at 10^-1 M NaCl) was 630 kJmol^-1; in data set [2] (nanoparticle layer prepared at 10^-3 M NaCl), 580 kJmol^-1. The “activation energy for drug diffusion” value in data set [3] (bare cross-linked droplets) came out at 127±15 kJmol^-1; in data set [3] (cross-linked droplets with hydrophobic silica nanoparticle coating, first value given), 155 kJmol^-1; in data set [3] (cross-linked droplets with hydrophobic silica nanoparticle coating, second value given) it was 177±25 kJmol^-1. The “time for release process to reach equilibrium” value in data set [3] (cross-linked PDMS droplets, 0.025 wt % DBP) was “approximately 2 hours”. Besides, the diffusion coefficient in data set [3] (cross-linked droplets with hydrophobic silica nanoparticle coating, first value given (salt level not stated, presumably 10^-3 M NaCl)) came out at 3.2 nm^2s^-1; in data set [3] (cross-linked droplets with hydrophobic silica nanoparticle coating, second value given (salt level not stated, presumably 10^-1 M NaCl)) it was 2.4±0.5 nm^2s^-1; in data set [3] (cross-linked droplets, DBP concentration above the solubility limit (0.25 wt %), first 90 minutes), 3.5±0.5 nm^2s^-1. The “amount of DBP loaded still remaining in the droplets after 2 hours” value is on record as 25% in data set [3] (cross-linked droplets, bare and coated with permeable silica nanoparticle coatings at 10^-4 M NaCl); 46% in data set [3] (cross-linked droplets, silica coating at 10^-1 M NaCl); 37% in data set [3] (cross-linked droplets, silica coating at 10^-3 M NaCl).

For the origin of these results see patent US20110229559A1, “Drug Release From Nanoparticle-Coated Capsules” (University of South Australia, priority 2006, published 2011).
